According to ChEMBL document CHEMBL5226364, “Microbial Dimerization and Chlorination of Isoflavones by a Takla Makan Desert-Derived Streptomyces sp. HDN154127” (2023):
In brackets after ≈: the same amount, converted by molar mass. Several values for one entry are separate records, joined by “and”; a condition that tells them apart may be missing. Equal entries are not always repeated.

Columns and labels:
Type in all cases: functional
[1] = tested on: Bacillus cereus; experiment: Antibacterial activity against Bacillus cereus assessed as inhibition of bacterial growth incubated for 24 hrs by microbroth dilution method
[2] = tested on: Proteus sp.; experiment: Antibacterial activity against Proteus sp. assessed as inhibition of bacterial growth incubated for 24 hrs by microbroth dilution method
[3] = tested on: Mycolicibacterium phlei; experiment: Antibacterial activity against Mycobacterium phlei assessed as inhibition of bacterial growth incubated for 24 hrs by microbroth dilution method
[4] = tested on: Bacillus subtilis; experiment: Antibacterial activity against Bacillus subtilis assessed as inhibition of bacterial growth incubated for 24 hrs by microbroth dilution method
[5] = tested on: Vibrio parahaemolyticus; experiment: Antibacterial activity against Vibrio parahaemolyticus assessed as inhibition of bacterial growth incubated for 24 hrs by microbroth dilution method
[6] = tested on: Candida albicans; experiment: Antifungal activity against monilia albicans assessed as inhibition of fungal growth incubated for 24 hrs by microbroth dilution method
[7] = tested on: Staphylococcus aureus; experiment: Antibacterial activity against methicillin-resistant Staphylococcus aureus assessed as inhibition of bacterial growth incubated for 24 hrs by microbroth dilution method
[8] = Proteus sp. (in: enterobacteria), read-out: MIC
[9] = Mycolicibacterium phlei, read-out: MIC
[10] = Bacillus subtilis, read-out: MIC

Molecule | MIC [1] [µM] | MIC ([1]; Bacillus cereus, read-out: MIC) [µM] | MIC [2] [µM] | MIC [2, 8] [µM] | MIC [3] | MIC [4] | MIC [5] [µM] | MIC [6] [µM] | MIC [3, 9] [µM] | MIC [4, 10] [µM] | MIC [7] [µM]
O=c1c(-c2ccc(O)cc2)coc2c(-c3cc(-c4coc5cc(O)cc(O)c5c4=O)ccc3O)c(O)ccc12 | 12 (≈ 6.27 µg/mL) | 6.2 (≈ 3.24 µg/mL) | 25 (≈ 13.1 µg/mL) | 50 (≈ 26.1 µg/mL) | 12 µM and 25 µM | 25 µM and 12 µM | 50 (≈ 26.1 µg/mL) | > 50 |  |  | 
O=c1c(-c2ccc(Oc3c(O)cc(O)c4c(=O)c(-c5ccc(O)cc5)coc34)cc2)coc2c(Cl)c(O)cc(O)c12 |  | > 50 |  | > 50 |  |  | 3.1 (≈ 1.78 µg/mL) | 1.6 (≈ 0.917 µg/mL) | > 50 | 0.8 (≈ 0.458 µg/mL) | > 50
O=c1c(-c2ccc(O)c(-c3c(O)cc(O)c4c(=O)c(-c5ccc(O)cc5)coc34)c2)coc2cc(O)cc(O)c12 |  | 3.1 (≈ 1.67 µg/mL) |  | 0.8 (≈ 0.431 µg/mL) |  |  | 0.8 (≈ 0.431 µg/mL) | > 50 | 0.8 (≈ 0.431 µg/mL) | 0.8 (≈ 0.431 µg/mL) | 0.8 (≈ 0.431 µg/mL)
COc1c(O)ccc2c(=O)c(-c3ccc(O)c(-c4cc(-c5coc6cc(O)ccc6c5=O)ccc4O)c3)coc12 |  | 25 (≈ 13.4 µg/mL) |  | > 50 |  |  | > 50 | > 50 | 25 (≈ 13.4 µg/mL) | 25 (≈ 13.4 µg/mL) | > 50
O=c1c(-c2ccc(O)cc2)coc2cc(O)ccc12 [DAIDZEIN] |  | > 50 |  | > 50 |  |  | > 50 | > 50 | > 50 | > 50 | > 50
COc1cc(-c2coc3cc(O)c(-c4cc(-c5coc6cc(O)ccc6c5=O)ccc4O)cc3c2=O)ccc1O |  | 12 (≈ 6.44 µg/mL) |  | 12 (≈ 6.44 µg/mL) |  |  | 50 (≈ 26.8 µg/mL) | > 50 | 12 (≈ 6.44 µg/mL) | 12 (≈ 6.44 µg/mL) | > 50
O=C(O)c1cn(C2CC2)c2cc(N3CCNCC3)c(F)cc2c1=O [CIPROFLOXACIN] |  | < 0.4 |  | 0.8 (≈ 0.265 µg/mL) |  |  | < 0.4 |  | < 0.4 | < 0.4 | > 50
O=c1c(-c2ccc(O)c(Oc3ccc(-c4coc5c(Cl)c(O)ccc5c4=O)cc3)c2)coc2cc(O)ccc12 |  | > 50 |  | > 50 |  |  | 0.8 (≈ 0.433 µg/mL) | 1.6 (≈ 0.865 µg/mL) | > 50 | 0.8 (≈ 0.433 µg/mL) | > 50
O=c1c(-c2ccc(Oc3c(O)cc(O)c4c(=O)c(-c5ccc(O)cc5)coc34)cc2)coc2c(Cl)c(O)ccc12 |  | > 50 |  | > 50 |  |  | > 50 | > 50 | > 50 | 0.4 (≈ 0.223 µg/mL) | > 50
O=c1c(-c2ccc(O)cc2)coc2cc(O)cc(O)c12 [GENISTEIN] |  | > 50 |  | > 50 |  |  | > 50 | > 50 | > 50 | > 50 | > 50
O=c1c(-c2ccc(O)c(-c3cc(-c4coc5c(Cl)c(O)cc(O)c5c4=O)ccc3O)c2)coc2cc(O)cc(O)c12 |  | > 50 |  | > 50 |  |  | 1.6 (≈ 0.917 µg/mL) | 1.6 (≈ 0.917 µg/mL) | > 50 | > 50 | > 50
O=c1c(-c2ccc(O)c(-c3c(O)cc(O)c4c(=O)c(-c5ccc(O)cc5)coc34)c2)coc2cc(O)ccc12 |  |  |  | 12 (≈ 6.27 µg/mL) |  | 12 µM (≈ 6.27 µg/mL) |  | > 50 |  | 6.2 (≈ 3.24 µg/mL) | > 50
O=c1c(-c2ccc(O)c(-c3c(O)ccc4c(=O)c(-c5ccc(O)cc5)coc34)c2)coc2cc(O)ccc12 |  | 3.1 (≈ 1.57 µg/mL) |  | 50 (≈ 25.3 µg/mL) |  |  | 12 (≈ 6.08 µg/mL) | > 50 | 6.2 (≈ 3.14 µg/mL) | 6.2 (≈ 3.14 µg/mL) | > 50
NYSTATIN |  |  |  |  |  |  |  | 25 |  |  | 
O=c1c(-c2ccc(O)c(Oc3ccc(-c4coc5c(Cl)c(O)cc(O)c5c4=O)cc3)c2)coc2cc(O)ccc12 |  | > 50 |  | > 50 |  |  | 3.1 (≈ 1.73 µg/mL) | 1.6 (≈ 0.891 µg/mL) | > 50 | 1.6 (≈ 0.891 µg/mL) | > 50
